Counter-ions that a name gives are not always drawn.
Each compound was assayed against T1, human 11β-HSD1 enzyme (Homo sapiens, UniProt P28845) (assay: Cellular in vitro 11β-HSD1 enzyme inhibition assay (SPA, HEK293/11β-HSD1 cells)). Conditions: HEK293, less than or equal to 1000 nM (1 μM).
T1 construct: stably transfected with a construct containing the full-length gene coding for the human 11β-HSD1 enzyme; expressed in transfected cells; host or cells: HEK293 (HEK293/11β-HSD1 cells)
Assay type: cell-based
Method: Cellular In Vitro 11β-HSD1 Enzyme Inhibition Assay
Compounds were assessed by a Scintillation Proximity Assay (SPA) performed according to the following protocol:
HEK293 cells were stably transfected with a construct containing the full-length gene coding for the human 11β-HSD1 enzyme to create HEK293/11β-HSD1 cells. Cells were routinely cultured in DMEM containing 10% calf foetal serum, 1% glutamine, and 1% penicillin and streptomycin. Prior to assay, cells were plated at 2×10^4 cells/well in 96-well poly-D-Lys coated flat-bottomed microplates and incubated in 5% CO2, 95% O2 at 37° C. for 24 hours. The media in each well was removed immediately before assay.
Compounds to be tested were dissolved in DMSO at 10 mM and serially diluted into water containing 10% DMSO. Diluted compounds at a volume of 10 μL were added to wells of a 96-well V-bottomed microplate. […] This solution (100 μL/well) was transferred to the plate containing the cells. The plate was then incubated in 5% CO2, 95% O2 at 37° C. for 2 hours.
Following this incubation, 50 μL of the assay solution was transferred to each well of a 96-well scintillation microplate. A mixture consisting of anti-mouse YSi SPA beads, pre-mixed with anti-cortisol antibody in assay buffer (50 mM Tris.HCl, pH 7.0; 300 mM NaCl; 1 mM EDTA, 5% glycerol) was prepared and 50 μL added to each well of the scintillation microplate. An adhesive strip was applied to the microplate and the plate gently shaken for at least 2 hours at room temperature, and then spun briefly on a low speed centrifuge. The plate was read on a scintillation counter suitable for 96-well microplates. For the calculation of percentage inhibition, a series of wells were added to the plate that represented the assay maximum and the assay minimum: one set that contained substrate without cells (mimimum) and another set that contained substrate and cells without any compound (maximum).
The calculation of median inhibitory concentration (IC50) values for the compounds was performed using GraphPad Prism® software. Dose-response curves for each compound were plotted as fractional inhibition and data fitted to the four parameter logistic equation.

T1 sequence (P28845 whole entry): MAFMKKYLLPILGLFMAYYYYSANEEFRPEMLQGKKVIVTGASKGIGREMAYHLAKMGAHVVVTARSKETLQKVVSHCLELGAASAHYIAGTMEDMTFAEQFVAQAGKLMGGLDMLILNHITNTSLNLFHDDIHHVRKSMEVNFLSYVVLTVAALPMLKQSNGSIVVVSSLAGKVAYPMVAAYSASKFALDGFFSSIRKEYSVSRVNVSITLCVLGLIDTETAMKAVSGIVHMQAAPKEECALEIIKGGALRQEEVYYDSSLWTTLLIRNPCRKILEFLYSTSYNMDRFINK

| SMILES | IC50 [nM] |
| --- | --- |
| O=C(c1csc(C2CCNCC2)c1)N1CCCC2CCCCC21 (single isomer, unassigned) [CC-044, trans-(Octahydro-quinolin-1-yl)-(5-piperidin-4-yl-thiophen-3-yl)-methanone] | ≤ 1000 |
| CC(=O)N1CCC(c2cc(C(=O)N3CCC[C@@H]4CCCC[C@@H]43)cs2)CC1 (single isomer, unassigned) [CC-114, cis-1-{4-[4-(Octahydro-quinoline-1-carbonyl)-thiophen-2-yl]-piperidin-1-yl}-ethanone] | ≤ 1000 |
| O=C(CO)N1CC=C(c2cc(C(=O)N3CCCC4CCCCC43)cs2)CC1 (centres unmarked) [CC-090] | ≤ 1000 |
| CC(C)C(=O)N1CCC(c2cc(C(=O)N3CCCC4CCCCC43)cs2)CC1 (centres unmarked) [CC-081] | ≤ 1000 |
| CCc1cc(C(=O)N2CCCCCC2)c(Cl)s1 [AA-004] | ≤ 1000 |
| O=C(c1cccnc1)N1CCC(c2cc(C(=O)N3CCCC4CCCCC43)cs2)CC1 (centres unmarked) [CC-103] | ≤ 1000 |
| CC(C)(C(=O)N1CCCC1)N1CCC(c2cc(C(=O)N3CCCC4CCCCC43)cs2)CC1 (centres unmarked) [CC-170] | ≤ 1000 |
| O=C(c1ccno1)N1CCC(c2cc(C(=O)N3CCCC4CCCCC43)cs2)CC1 (centres unmarked) [CC-051] | ≤ 1000 |
| CC(=O)N1CCC(c2cc(C(=O)N3CCCC(C)(C)CC3)cs2)CC1 | ≤ 1000 |
| O=C(c1csc(C2CCS(=O)(=O)CC2)c1)N1CCC[C@@H]2CCCC[C@@H]21 (racemic) [CC-138, cis-[5-(1,1-Dioxo-hexahydro-thiopyran-4-yl)-thiophen-3-yl]-(octahydro-quinolin-1-yl)methanone] | ≤ 1000 |
| CC(=O)N1CCC(c2cc(C(=O)N3CCCC4CCCCC43)cs2)CC1 (centres unmarked) | ≤ 1000 |
| O=C(c1csc(C2CCOCC2)c1)N1CCCC2(CCCCC2)C1 [CC-077] | ≤ 1000 |
| COC(=O)N1CCC(c2cc(C(=O)N3CCC[C@@H]4CCCC[C@@H]43)cs2)CC1 (relative stereo) [CC-066, cis-4-[4-(Octahydro-quinoline-1-carbonyl)-thiophen-2-yl]-piperidine-1-carboxylic acid methyl ester] | ≤ 1000 |
| O=C(Cc1cccnc1)N1CCC(c2cc(C(=O)N3CCCC4CCCCC43)cs2)CC1 (centres unmarked) [CC-134] | ≤ 1000 |
| O=C(NCc1ccccn1)N1CCC(c2cc(C(=O)N3CCCC4CCCCC43)cs2)CC1 (centres unmarked) [CC-166] | ≤ 1000 |
| CC1(C)CC2CC(C)(CN2C(=O)c2csc(C3=CCNCC3)c2)C1 (centres unmarked) [CC-074] | ≤ 1000 |
| CC1(C)CCCN(C(=O)c2csc(C3CCN(C(C)(C)C(N)=O)CC3)c2)CC1 [CC-137] | ≤ 1000 |

| SMILES | IC50 [nM] |
| --- | --- |
| O=C(NCCCO)N1CCC(c2cc(C(=O)N3CCCC4CCCCC43)cs2)CC1 (centres unmarked) [CC-161] | ≤ 1000 |
| CCc1cc(C(=O)N2CCCCC2c2ccccc2)cs1 (centres unmarked) [AA-021] | ≤ 1000 |
| O=C(Cc1ccccn1)N1CCC(c2cc(C(=O)N3CCCC4CCCCC43)cs2)CC1 (centres unmarked) [CC-133] | ≤ 1000 |
| CNC(=O)N1CCC(c2cc(C(=O)N3CCCCC3c3ccccc3)cs2)CC1 (centres unmarked) [CC-132] | ≤ 1000 |
| O=C(OCc1ccccc1)N1CCC(c2cc(C(=O)N3CCCCCC3)cs2)CC1 [CC-007, 4-[4-(Azepane-1-carbonyl)-thiophen-2-yl]-piperidine-1-carboxylic acid benzyl ester] | ≤ 1000 |
| O=C(c1csc(C2CCOCC2)c1)N1CCC[C@@H]2CCCC[C@@H]21 (single isomer, unassigned) [CC-140, cis-(octahydro-quinolin-1-yl)-[5-(tetrahydro-pyran-4-yl)-thiophen-3-yl]-methanone] | ≤ 1000 |
| O=C(c1csc(C2CCNC2)c1)N1CCC[C@@H]2CCCC[C@@H]21 (relative stereo) [CC-177, cis-(Octahydro-quinolin-1-yl)-(5-pyrrolidin-3-yl-thiophen-3-yl)-methanone] | ≤ 1000 |
| O=C(c1csc(C2CCNCC2)c1)N1CCCC2CCCCC21 (centres unmarked) [CC-040] | ≤ 1000 |
| O=C1COCCN1c1cc(C(=O)N2CCCC3CCCCC32)cs1 (centres unmarked) [CC-050] | ≤ 1000 |
| O=C(CO)N1CCC(c2cc(C(=O)N3CCCC4CCCCC43)cs2)CC1 (centres unmarked) [CC-054] | ≤ 1000 |
| COCCNC(=O)N1CCC(c2cc(C(=O)N3CCCC4CCCCC43)cs2)CC1 (centres unmarked) [CC-164] | ≤ 1000 |
| CC(C)(C(N)=O)N1CCC(c2cc(C(=O)N3CCC[C@@H]4CCCC[C@@H]43)cs2)CC1 (relative stereo) [CC-158, cis-2-{4-[4-(Octahydro-quinoline-1-carbonyl)-thiophen-2-yl]-piperidin-1-yl}-isobutyramide] | ≤ 1000 |
| O=C(c1csc(C2=CCNCC2)c1)N1CCCCC1c1ccccc1 (centres unmarked) [CC-123] | ≤ 1000 |
| O=C(c1csc(C2=CCNCC2)c1)N1CCC[C@@H]2CCCC[C@@H]21 (relative stereo) [CC-046, cis-(octahydro-quinolin-1-yl)-[5-(1,2,3,6-tetrahydro-pyridin-4-yl)-thiophen-3-yl]-methanone] | ≤ 1000 |
| COCc1cc(C(=O)N2CC3(C)CC2CC(C)(C)C3)cs1 (centres unmarked) [BB-006] | ≤ 1000 |
| Cn1cncc1C(=O)N1CCC(c2cc(C(=O)N3CCCC4CCCCC43)cs2)CC1 (centres unmarked) [CC-084] | ≤ 1000 |
| CCc1cc(C(=O)N2CCCCCC2)c(Br)s1 [AA-005] | ≤ 1000 |

Same assay, conditions: HEK293, more than 1000 nM (1.0 μM) and less than or equal to 30 μM

| SMILES | IC50 [nM] |
| --- | --- |
| O=C(c1csc(COc2ccc(-n3ccnc3)cc2)c1)N1CCCCC1 [BB-003] | 1000 to 30000 |
| O=C(c1ccccc1)N1CCC(c2cc(C(=O)N3CCCC4CCCCC43)cs2)CC1 (centres unmarked) [CC-110] | 1000 to 30000 |
| O=C(OCc1ccccc1)N1CCC(c2cc(C(=O)N3CCCC4(CCCCC4)C3)cs2)CC1 [CC-078] | 1000 to 30000 |
| O=C(c1csc(C2CCNCC2)c1)N1CCCC2(CCCCC2)C1 [CC-079] | 1000 to 30000 |
| CC1(C)CCCN(C(=O)c2csc(C3CCN(S(C)(=O)=O)CC3)c2)CC1 [CC-096] | 1000 to 30000 |
| O=C(c1csc(C2CCN(S(=O)(=O)c3ccccc3)CC2)c1)N1CCCC2CCCCC21 (centres unmarked) [CC-092] | 1000 to 30000 |
| CC(C)CS(=O)(=O)N1CCC(c2cc(C(=O)N3CCCC4CCCCC43)cs2)CC1 (centres unmarked) [CC-105] | 1000 to 30000 |
| O=C(c1csc(C2CCCNC2)c1)N1CCCC2CCCCC21 (centres unmarked) [CC-043] | 1000 to 30000 |
| O=C(CCN1CCCCC1)N1CCC(c2cc(C(=O)N3CCC[C@@H]4CCCC[C@@H]43)cs2)CC1 (relative stereo) [CC-061, cis-1-{4-[4-(Octahydro-quinoline-1-carbonyl)-thiophen-2-yl]-piperidin-1-yl}-3-piperidin-1-yl-propan-1-one] | 1000 to 30000 |
| O=C(c1csc(C2CCNCC2)c1)N1CCCC2CCCCC21 (single isomer, unassigned) [CC-045, trans-(Octahydro-quinolin-1-yl)-(5-piperidin-4-yl-thiophen-3-yl)-methanone] | 1000 to 30000 |
| O=C(c1csc(C2CCCNC2)c1)N1CCCC2(CCCCC2)C1 (centres unmarked) [CC-080] | 1000 to 30000 |
| O=C(c1csc(C2CCNCC2)c1)N1CCN2CCCCC2C1 (centres unmarked) [CC-042] | 1000 to 30000 |
| CC1(C)CCCCN(C(=O)c2csc(C3=CCNCC3)c2)C1 [CC-125] | 1000 to 30000 |
| Cn1cc(CN2CCC(c3cc(C(=O)N4CCC[C@@H]5CCCC[C@@H]54)cs3)CC2)cn1 (racemic) [CC-152, cis-1-(1-Methyl-1H-pyrazol-4-ylmethyl)-4-[4-(octahydro-quinoline-1-carbonyl)-thiophen-2-yl]-piperidinium formate] | 1000 to 30000 |
| O=C(CN1CCOCC1)N1CCC(c2cc(C(=O)N3CCCC4CCCCC43)cs2)CC1 (centres unmarked) [CC-060] | 1000 to 30000 |
| CC1CCCCN1C(=O)c1csc(C2CCOCC2)c1 (centres unmarked) [CC-002] | 1000 to 30000 |
| O=C(c1csc(C2CCOCC2)c1)N1CCC2CCCCC2C1 (centres unmarked) [CC-029] | 1000 to 30000 |
| O=C(c1csc(C2CCCNC2)c1)N1CCCCCC1 (centres unmarked) [CC-015, Azepan-1-yl-(5-piperidin-3-yl-thiophen-3-yl)-methanone] | 1000 to 30000 |
| CC1(C)CCCN(C(=O)c2csc(C3CCN(C(=O)c4ccno4)CC3)c2)CC1 [CC-095] | 1000 to 30000 |
| O=C(c1csc(C2CCOCC2)c1)N1CCCCC1 [CC-001, Piperidin-1-yl-[5-(tetrahydro-pyran-4-yl)-thiophen-3-yl]-methanone] | 1000 to 30000 |
| O=C(c1csc(C2CCNCC2)c1)N1CCC[C@@H]2CCCC[C@@H]21 (single isomer, unassigned) [CC-039, cis-(octahydro-quinolin-1-yl)-(5-piperidin-4-yl-thiophen-3-yl)-methanone] | 1000 to 30000 |
| CS(=O)(=O)NCCC(=O)N1CCC(c2cc(C(=O)N3CCCCC3c3ccccc3)cs2)CC1 (centres unmarked) [CC-128] | 1000 to 30000 |
| O=C(c1csc(C2CCN(CC(O)CO)CC2)c1)N1CCCC2CCCCC21 (centres unmarked) [CC-153] | 1000 to 30000 |
| O=C(c1csc(C2CCNCC2)c1)N1CCCC(c2ccccc2)C1 (centres unmarked) [CC-018] | 1000 to 30000 |
| O=C(CCCN1CCCCC1)N1CCC(c2cc(C(=O)N3CCCC4CCCCC43)cs2)CC1 (centres unmarked) [CC-082] | 1000 to 30000 |

Source: US8362008B2 (The University Of Edinburgh, priority 2007, dated 2013)
